Laboratory results: ChEMBL document CHEMBL1201862, “PubChem BioAssay data set” (2004)
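Tested at 5 concentrations; 48 h exposure; 96-well plates; endpoints linearly interpolated, else capped at highest concentration. At the GI50, growth is halved.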 The source made the active and inactive calls. No stated cut-off is given here; in the data, active = GI50 up to about 1.1 µM and inactive = higher.

What was measured:
Assay in all cases: NCI anticancer screen, dose series, 48 h
CCRF-CEM = tested on: CCRF-CEM
KM12 = tested on: KM12
M14 = tested on: M14
SW-620 = tested on: SW-620
HT-29 = tested on: HT-29
ACHN = tested on: ACHN
LXFL 529 = tested on: LXFL 529
NCI-H23 = tested on: NCI-H23
SNB-78 = tested on: SNB-78
HCT-15 = tested on: HCT-15
LOX IMVI = tested on: LOX IMVI
DLD-1 = tested on: DLD-1
U-251 = tested on: U-251
SF-539 = tested on: SF-539
SN12C = tested on: SN12C
UO-31 = tested on: UO-31
HCC 2998 = tested on: HCC 2998
HOP-62 = tested on: HOP-62
HL-60 = tested on: HL-60
EKVX = tested on: EKVX
MOLT-4 = tested on: MOLT-4
OVCAR-5 = tested on: OVCAR-5
DMS-273 = tested on: DMS-273
HCT-116 = tested on: HCT-116
SF-268 = tested on: SF-268
TK-10 = tested on: TK-10
NCI-H522 = tested on: NCI-H522
CAKI-1 = tested on: CAKI-1
SK-MEL-28 = tested on: SK-MEL-28
K562 = tested on: K562
M19-MEL = tested on: M19-MEL
COLO 205 = tested on: COLO 205
UACC-257 = tested on: UACC-257
KM-20L2 = tested on: KM-20L2
UACC-62 = tested on: UACC-62
SNB-75 = tested on: SNB-75
IGROV-1 = tested on: IGROV-1
SNB-19 = tested on: SNB-19
SF-295 = tested on: SF-295
RPMI-8226 = tested on: RPMI-8226
RXF 393 = tested on: RXF 393
A498 = tested on: A498
A549 = tested on: A549
SK-MEL-5 = tested on: SK-MEL-5
SK-MEL-2 = tested on: SK-MEL-2
NCI-H460 = tested on: NCI-H460
SK-OV-3 = tested on: SK-OV-3
Malme-3M = tested on: Malme-3M
786-0 = tested on: 786-0
NCI-H226 = tested on: NCI-H226
OVCAR-8 = tested on: OVCAR-8
OVCAR-3 = tested on: OVCAR-3
DMS-114 = tested on: DMS-114
XF498 = tested on: XF498
SR = tested on: SR
OVCAR-4 = tested on: OVCAR-4
HOP-18 = tested on: HOP-18

CSc1nc(NC2OCC(OC(C)=O)C(OC(C)=O)C2OC(C)=O)c2c(n1)OCC2=O (configuration not stated)
GI50 (CCRF-CEM): > 100 µM (inactive) | GI50 (KM12): > 100 µM (inactive) | GI50 (M14): > 100 µM (inactive) | GI50 (SW-620): > 100 µM (inactive) | GI50 (HT-29): > 100 µM (inactive) | GI50 (ACHN): > 100 µM (inactive) | GI50 (LXFL 529): > 100 µM (inactive) | GI50 (NCI-H23): > 100 µM (inactive) | GI50 (SNB-78): > 100 µM (inactive) | GI50 (HCT-15): > 100 µM | GI50 (LOX IMVI): > 100 µM (inactive) | GI50 (DLD-1): > 100 µM (inactive) | GI50 (U-251): > 100 µM (inactive) | GI50 (SF-539): > 100 µM (inactive) | GI50 (SN12C): > 100 µM (inactive) | GI50 (UO-31): > 100 µM (inactive) | GI50 (HCC 2998): > 100 µM (inactive) | GI50 (HOP-62): > 100 µM (inactive) | GI50 (HL-60): > 100 µM (inactive) | GI50 (EKVX): > 100 µM (inactive) | GI50 (MOLT-4): > 100 µM (inactive) | GI50 (OVCAR-5): > 100 µM (inactive) | GI50 (DMS-273): > 100 µM (inactive) | GI50 (HCT-116): > 100 µM (inactive) | GI50 (SF-268): > 100 µM (inactive) | GI50 (TK-10): > 100 µM (inactive) | GI50 (NCI-H522): > 100 µM (inactive) | GI50 (CAKI-1): > 100 µM (inactive) | GI50 (SK-MEL-28): > 100 µM (inactive) | GI50 (K562): > 100 µM (inactive) | GI50 (M19-MEL): > 100 µM (inactive) | GI50 (COLO 205): > 100 µM (inactive) | GI50 (UACC-257): > 100 µM (inactive) | GI50 (KM-20L2): > 100 µM (inactive) | GI50 (UACC-62): > 100 µM (inactive) | GI50 (SNB-75): > 100 µM (inactive) | GI50 (IGROV-1): > 100 µM (inactive) | GI50 (SNB-19): > 100 µM (inactive) | GI50 (SF-295): > 100 µM (inactive) | GI50 (RPMI-8226): > 100 µM (inactive) | GI50 (RXF 393): > 100 µM (inactive) | GI50 (A498): > 100 µM (inactive) | GI50 (A549): > 100 µM (inactive) | GI50 (SK-MEL-5): > 100 µM (inactive) | GI50 (SK-MEL-2): > 100 µM (inactive) | GI50 (NCI-H460): > 100 µM (inactive) | GI50 (SK-OV-3): > 100 µM (inactive) | GI50 (Malme-3M): > 100 µM (inactive) | GI50 (786-0): > 100 µM (inactive) | GI50 (NCI-H226): > 100 µM (inactive) | GI50 (OVCAR-8): > 100 µM (inactive) | GI50 (OVCAR-3): > 100 µM (inactive) | GI50 (DMS-114): > 100 µM (inactive)

CC(=O)NC1=C(NCCN(C)C)C(=O)c2ccccc2C1=O
GI50 (CCRF-CEM): 15.4 µM (inactive) | GI50 (KM12): 15.8 µM (inactive) | GI50 (M14): 18.4 µM (inactive) | GI50 (SW-620): 16 µM (inactive) | GI50 (HT-29): 13.8 µM (inactive) | GI50 (ACHN): 16.9 µM (inactive) | GI50 (XF498): 13.7 µM (inactive) | GI50 (LXFL 529): 15 µM (inactive) | GI50 (NCI-H23): 11.5 µM (inactive) | GI50 (SNB-78): 18.9 µM (inactive) | GI50 (SR): 41.3 µM (inactive) | GI50 (HCT-15): 9.51 µM | GI50 (LOX IMVI): 12.6 µM (inactive) | GI50 (DLD-1): 14.3 µM (inactive) | GI50 (U-251): 10.3 µM (inactive) | GI50 (SF-539): 11.7 µM (inactive) | GI50 (SN12C): 10.4 µM (inactive) | GI50 (UO-31): > 50 µM (inactive) | GI50 (HCC 2998): 14.9 µM (inactive) | GI50 (HOP-62): 14.5 µM (inactive) | GI50 (HL-60): 9.79 µM (inactive) | GI50 (EKVX): 32.9 µM (inactive) | GI50 (MOLT-4): 21.9 µM (inactive) | GI50 (DMS-273): 11.7 µM (inactive) | GI50 (HCT-116): 8.34 µM (inactive) | GI50 (SF-268): 21.5 µM (inactive) | GI50 (TK-10): 27.8 µM (inactive) | GI50 (NCI-H522): 10.3 µM (inactive) | GI50 (SK-MEL-28): > 50 µM (inactive) | GI50 (K562): 12.4 µM (inactive) | GI50 (M19-MEL): 7.6 µM (inactive) | GI50 (COLO 205): 9.95 µM (inactive) | GI50 (UACC-257): 9.25 µM (inactive) | GI50 (KM-20L2): 16.4 µM (inactive) | GI50 (UACC-62): 10.5 µM (inactive) | GI50 (SNB-75): 25.5 µM (inactive) | GI50 (IGROV-1): 14.7 µM (inactive) | GI50 (SNB-19): 17.6 µM (inactive) | GI50 (SF-295): 15.2 µM (inactive) | GI50 (RXF 393): 25.4 µM (inactive) | GI50 (A549): 15 µM (inactive) | GI50 (SK-MEL-5): 7.21 µM (inactive) | GI50 (SK-MEL-2): 15.3 µM (inactive) | GI50 (NCI-H460): 12.8 µM (inactive) | GI50 (SK-OV-3): > 50 µM (inactive) | GI50 (Malme-3M): 7.62 µM (inactive) | GI50 (786-0): 18.1 µM (inactive) | GI50 (NCI-H226): > 50 µM (inactive) | GI50 (OVCAR-8): 11.3 µM (inactive) | GI50 (OVCAR-3): 14.7 µM (inactive) | GI50 (OVCAR-4): 8.93 µM (inactive)

O=C(Nc1ccc([N+](=O)[O-])cc1Cl)c1cccc([N+](=O)[O-])c1O
GI50 (HOP-18): 0.109 µM (active) | GI50 (CCRF-CEM): 1.13 µM (inactive) | GI50 (KM12): 3.11 µM (inactive) | GI50 (SW-620): 2.59 µM (inactive) | GI50 (HT-29): 3.04 µM (inactive) | GI50 (ACHN): 2.52 µM (inactive) | GI50 (LXFL 529): 1.09 µM (active) | GI50 (NCI-H23): 1.12 µM (inactive) | GI50 (SNB-78): 2.3 µM (inactive) | GI50 (SR): 2.9 µM (inactive) | GI50 (LOX IMVI): 1.71 µM (inactive) | GI50 (U-251): 2.75 µM (inactive) | GI50 (SF-539): 2.05 µM (inactive) | GI50 (SN12C): 1.48 µM (inactive) | GI50 (UO-31): 1.45 µM (inactive) | GI50 (HCC 2998): 1.69 µM (inactive) | GI50 (HL-60): 1.87 µM (inactive) | GI50 (EKVX): 2.16 µM (inactive) | GI50 (MOLT-4): 1.88 µM (inactive) | GI50 (OVCAR-5): 3.02 µM (inactive) | GI50 (SF-268): 2.7 µM (inactive) | GI50 (NCI-H522): 0.755 µM (active) | GI50 (CAKI-1): 1.83 µM (inactive) | GI50 (SK-MEL-28): 1.6 µM (inactive) | GI50 (K562): 1.12 µM (inactive) | GI50 (UACC-257): 2.02 µM (inactive) | GI50 (KM-20L2): 2.74 µM (inactive) | GI50 (SNB-19): 3.09 µM (inactive) | GI50 (SF-295): 1.92 µM (inactive) | GI50 (RPMI-8226): 0.92 µM (active) | GI50 (A498): 0.668 µM (active) | GI50 (A549): 2.3 µM (inactive) | GI50 (SK-MEL-2): 1.6 µM (inactive) | GI50 (NCI-H460): 2.21 µM (inactive) | GI50 (Malme-3M): 0.552 µM (active) | GI50 (NCI-H226): 2.84 µM (inactive) | GI50 (OVCAR-8): 2.61 µM (inactive) | GI50 (OVCAR-4): 2.82 µM (inactive)
